Assay results reported in ChEMBL document CHEMBL4680133, “Novel nitroimidazole derivatives evaluated for their trypanocidal, cytotoxic, and genotoxic activities” (Eur J Med Chem, 2020).

What was measured:
Trypanosoma cruzi [1] = experiment: Antitrypanosomal activity against bloodstream form of Trypanosoma cruzi Y trypomastigotes infected in African green monkey Vero cells assessed as increase in parasite lysis measured after 24 hrs by Neubauer chamber method; type: functional, organism-based
HepG2 [2] = experiment: Genotoxicity in human HepG2 assessed as mitotic index at 1880 uM measured after 24 hrs by micronucleus test (reference value: 61 to 108); type: toxicity, cell-based; conditions: hepg2, 24 h
RAW264.7 [3] = experiment: Genotoxicity in mouse RAW264.7 cells assessed as number of micronucleated cells at 1880 uM measured after 24 hrs by micronucleus test (reference value: 12 to 15); type: toxicity, cell-based; conditions: raw264.7, 24 h
[4] = Selectivity index, ratio of GI50 for human HepG2 cells assessed as reduction in cell viability measured after 24 hrs by WST1 assay to IC50 for antitrypanosomal activity against Trypanosoma cruzi Y axenic amastigotes infected in African green monkey Vero cells; type: toxicity; conditions: read-out: Selectivity Index
RAW264.7 [5] = experiment: Genotoxicity in mouse RAW264.7 cells assessed as mitotic index at 1880 uM measured after 24 hrs by micronucleus test (reference value: 40 to 249); type: toxicity, cell-based; conditions: raw264.7, 24 h
[6] = Genotoxicity in human HepG2 assessed as survival at 188 uM measured after 24 hrs by micronucleus test (reference value: 100%); type: toxicity, cell-based; conditions: HepG2 cells, read-out: Survival
[7] = Selectivity index, ratio of GI50 for mouse RAW264.7 cells assessed as reduction in cell viability measured after 24 hrs by WST1 assay to IC50 for antitrypanosomal activity against Trypanosoma cruzi Y axenic amastigotes infected in African green monkey Vero cells; type: toxicity; conditions: read-out: Selectivity Index
RAW264.7 [8] = experiment: Genotoxicity in mouse RAW264.7 cells assessed as number of micronucleated cells at 188 uM measured after 24 hrs by micronucleus test (reference value: 12 to 15); type: toxicity, cell-based; conditions: raw264.7, 24 h
RAW264.7 [9] = experiment: Genotoxicity in mouse RAW264.7 cells assessed as mitotic index at 376 uM measured after 24 hrs by micronucleus test (reference value: 40 to 249); type: toxicity, cell-based; conditions: raw264.7, 24 h
[10] = Mutagenicity in Salmonella typhimurium TA100 assessed as revertant/ug measured after 20 mins in absence of S9 fraction by microsome assay; type: toxicity; conditions: salmonella enterica subsp. enterica serovar typhimurium, microsomes
[11] = Genotoxicity in mouse RAW264.7 cells assessed as survival at 188 uM measured after 24 hrs by micronucleus test (reference value: 100%); type: toxicity, cell-based; conditions: read-out: Survival
HepG2 [12] = experiment: Genotoxicity in human HepG2 assessed as number of micronucleated cells at 1880 uM measured after 24 hrs by micronucleus test (reference value: 14 to 18); type: toxicity, cell-based; conditions: hepg2, 24 h
RAW264.7 [13] = experiment: Cytotoxicity against mouse RAW264.7 cells at 18.8 to 376 uM measured after 24 hrs by LDH assay; type: cell-based; conditions: raw264.7, 24 h, dose 18.8-376 µM
[14] = Mutagenicity in Salmonella typhimurium TA97 assessed as revertant/ug measured after 20 mins in presence of S9 fraction by microsome assay; type: toxicity, subcellular; conditions: salmonella enterica subsp. enterica serovar typhimurium, s9, 20 min
[15] = Genotoxicity in human HepG2 assessed as survival at 376 uM measured after 24 hrs by micronucleus test (reference value: 100%); type: toxicity, cell-based; conditions: HepG2 cells, read-out: Survival
HepG2 [16] = experiment: Genotoxicity in human HepG2 assessed as mitotic index at 376 uM measured after 24 hrs by micronucleus test (reference value: 61 to 108); type: toxicity, cell-based; conditions: hepg2, 24 h
HepG2 [17] = experiment: Genotoxicity in human HepG2 assessed as number of micronucleated cells at 188 uM measured after 24 hrs by micronucleus test (reference value: 14 to 18); type: toxicity, cell-based; conditions: hepg2, 24 h
[18] = Mutagenicity in Salmonella typhimurium TA102 measured after 20 mins in absence of S9 fraction by microsome assay; type: toxicity; conditions: salmonella enterica subsp. enterica serovar typhimurium, microsomes, dose 5-100 µg
[19] = Cytotoxicity against mouse RAW264.7 cells assessed as reduction in cell viability measured after 24 hrs by WST1 assay; type: cell-based
[20] = Mutagenicity in Salmonella typhimurium TA102 measured after 20 mins in presence of S9 fraction by microsome assay; type: toxicity, subcellular; conditions: salmonella enterica subsp. enterica serovar typhimurium, s9, 20 min, dose 5-100 µg
HepG2 [21] = experiment: Genotoxicity in human HepG2 assessed as mitotic index at 188 uM measured after 24 hrs by micronucleus test (reference value: 61 to 108); type: toxicity, cell-based; conditions: hepg2, 24 h
[22] = Selectivity index, ratio of GI50 for mouse RAW264.7 cells assessed as reduction in cell viability measured after 24 hrs by WST1 assay to IC50 for antitrypanosomal activity against bloodstream form of Trypanosoma cruzi Y trypomastigotes infected in African green monkey Vero cells; type: toxicity; conditions: read-out: Selectivity Index
[23] = Mutagenicity in Salmonella typhimurium TA98 measured after 20 mins in absence of S9 fraction by microsome assay; type: toxicity; conditions: salmonella enterica subsp. enterica serovar typhimurium, microsomes, dose 5-100 µg
[24] = Toxicity in Salmonella typhimurium YG1021 at 5 to 100 ug/plate after 20 mins by colony counting method; conditions: salmonella enterica subsp. enterica serovar typhimurium, dose 5-100 µg
[25] = Selectivity index, ratio of GI50 for human HepG2 cells assessed as reduction in cell viability measured after 24 hrs by WST1 assay to IC50 for antitrypanosomal activity against bloodstream form of Trypanosoma cruzi Y trypomastigotes infected in African green monkey Vero cells; type: toxicity; conditions: read-out: Selectivity Index
HepG2 [26] = experiment: Genotoxicity in human HepG2 assessed as number of micronucleated cells at 3760 uM measured after 24 hrs by micronucleus test (reference value: 14 to 18); type: toxicity, cell-based; conditions: hepg2, 24 h
HepG2 [27] = experiment: Cytotoxicity against human HepG2 cells at 376 uM measured after 24 hrs by LDH assay; type: cell-based; conditions: hepg2, 24 h
HepG2 [28] = experiment: Genotoxicity in human HepG2 assessed as mitotic index at 3760 uM measured after 24 hrs by micronucleus test (reference value: 61 to 108); type: toxicity, cell-based; conditions: hepg2, 24 h
[29] = Mutagenicity in Salmonella typhimurium YG1021 at 5 to 100 ug/plate after 20 mins by microsome assay; type: toxicity; conditions: salmonella enterica subsp. enterica serovar typhimurium, microsomes
RAW264.7 [30] = experiment: Genotoxicity in mouse RAW264.7 cells assessed as mitotic index at 188 uM measured after 24 hrs by micronucleus test (reference value: 40 to 249); type: toxicity, cell-based; conditions: raw264.7, 24 h
[31] = Genotoxicity in mouse RAW264.7 cells assessed as survival at 3760 uM measured after 24 hrs by micronucleus test (reference value: 100%); type: toxicity, cell-based; conditions: read-out: Survival
[32] = Mutagenicity in Salmonella typhimurium TA97 measured after 20 mins in absence of S9 fraction by microsome assay; type: toxicity; conditions: salmonella enterica subsp. enterica serovar typhimurium, microsomes, dose 5-100 µg
Trypanosoma cruzi [33] = experiment: Antitrypanosomal activity against Trypanosoma cruzi Y axenic amastigotes infected in African green monkey Vero cells after 24 hrs by MTT assay; type: functional, organism-based
[34] = Genotoxicity in human HepG2 assessed as survival at 3760 uM measured after 24 hrs by micronucleus test (reference value: 100%); type: toxicity, cell-based; conditions: HepG2 cells, read-out: Survival
[35] = Mutagenicity in Salmonella typhimurium TA97 measured after 20 mins in presence of S9 fraction by microsome assay; type: toxicity, subcellular; conditions: salmonella enterica subsp. enterica serovar typhimurium, s9, 20 min, dose 5-100 µg
[36] = Genotoxicity in mouse RAW264.7 cells assessed as survival at 376 uM measured after 24 hrs by micronucleus test (reference value: 100%); type: toxicity, cell-based; conditions: read-out: Survival
[37] = Mutagenicity in Salmonella typhimurium TA100 assessed as revertant/ug measured after 20 mins in presence of S9 fraction by microsome assay; type: toxicity, subcellular; conditions: salmonella enterica subsp. enterica serovar typhimurium, s9, 20 min
[38] = Mutagenicity in Salmonella typhimurium TA98 measured after 20 mins in presence of S9 fraction by microsome assay; type: toxicity, subcellular; conditions: salmonella enterica subsp. enterica serovar typhimurium, s9, 20 min, dose 5-100 µg
RAW264.7 [39] = experiment: Genotoxicity in mouse RAW264.7 cells assessed as number of micronucleated cells at 376 uM measured after 24 hrs by micronucleus test (reference value: 12 to 15); type: toxicity, cell-based; conditions: raw264.7, 24 h
[40] = Mutagenicity in Salmonella typhimurium TA97 assessed as revertant/ug measured after 20 mins in absence of S9 fraction by microsome assay; type: toxicity; conditions: salmonella enterica subsp. enterica serovar typhimurium, microsomes
[41] = Mutagenicity in Salmonella typhimurium TA100 measured after 20 mins in absence of S9 fraction by microsome assay; type: toxicity; conditions: salmonella enterica subsp. enterica serovar typhimurium, microsomes, dose 5-100 µg
[42] = Mutagenicity in Salmonella typhimurium YG1024 at 5 to 100 ug/plate after 20 mins by microsome assay; type: toxicity; conditions: salmonella enterica subsp. enterica serovar typhimurium, microsomes, dose 5-100 µg
[43] = Toxicity in Salmonella typhimurium YG1024 at 5 to 100 ug/plate after 20 mins by colony counting method; conditions: salmonella enterica subsp. enterica serovar typhimurium, dose 5-100 µg
[44] = Cytotoxicity against human HepG2 cells assessed as reduction in cell viability measured after 24 hrs by WST1 assay; type: cell-based
[45] = Genotoxicity in human HepG2 assessed as survival at 1880 uM measured after 24 hrs by micronucleus test (reference value: 100%); type: toxicity, cell-based; conditions: HepG2 cells, read-out: Survival
HepG2 [46] = experiment: Genotoxicity in human HepG2 assessed as number of micronucleated cells at 376 uM measured after 24 hrs by micronucleus test (reference value: 14 to 18); type: toxicity, cell-based; conditions: hepg2, 24 h
[47] = Mutagenicity in Salmonella typhimurium TA100 measured after 20 mins in presence of S9 fraction by microsome assay; type: toxicity, subcellular; conditions: salmonella enterica subsp. enterica serovar typhimurium, s9, 20 min, dose 5-100 µg
[48] = Genotoxicity in mouse RAW264.7 cells assessed as survival at 1880 uM measured after 24 hrs by micronucleus test (reference value: 100%); type: toxicity, cell-based; conditions: read-out: Survival
RAW264.7 [49] = experiment: Genotoxicity in mouse RAW264.7 cells assessed as mitotic index at 3760 uM measured after 24 hrs by micronucleus test (reference value: 40 to 249); type: toxicity, cell-based; conditions: raw264.7, 24 h
RAW264.7 [50] = experiment: Genotoxicity in mouse RAW264.7 cells assessed as number of micronucleated cells at 3760 uM measured after 24 hrs by micronucleus test (reference value: 12 to 15); type: toxicity, cell-based; conditions: raw264.7, 24 h

SMILES: CCOC(=O)c1cn(-c2c([N+](=O)[O-])ncn2C)nn1
- IC50 (Trypanosoma cruzi [1]): 45.3 µM
- Activity_index (HepG2 [2]): 60
- Activity (RAW264.7 [3]): 13
- selectivity ratio at 24 h [4]: > 0.95
- Activity_index (RAW264.7 [5]): 100
- viability at 24 h, 188 µM [6]: 99%
- selectivity ratio at 24 h [7]: > 0.95
- Activity (RAW264.7 [8]): 11
- Activity_index (RAW264.7 [9]): 80
- Activity [10]: 3.54 revertants/µg
- viability at 24 h, 188 µM [11]: 99%
- Activity (HepG2 [12]): 32
- Activity (RAW264.7 [13]): Non-Toxic
- Activity [14]: 0.714 µg
- viability at 24 h, 376 µM [15]: 99%
- Activity_index (HepG2 [16]): 50
- Activity (HepG2 [17]): 17
- Activity [18]: Toxic
- GI50 at 24 h [19]: > 376 µM
- Activity [20]: Toxic
- Activity_index (HepG2 [21]): 55
- selectivity ratio at 24 h [22]: > 8.3
- Activity [23]: Non-Toxic
- Activity [24]: Toxic
- selectivity ratio at 24 h [25]: > 8.3
- Activity (HepG2 [26]): 35
- Activity (HepG2 [27]): Toxic
- Activity_index (HepG2 [28]): 52
- Activity [29]: Non-Toxic
- Activity_index (RAW264.7 [30]): 58
- viability at 24 h, 3760 µM [31]: 90%
- Activity [32]: Toxic
- IC50 (Trypanosoma cruzi [33]): 393 µM
- viability at 24 h, 3760 µM [34]: 90%
- Activity [35]: Toxic
- viability at 24 h, 376 µM [36]: 99%
- Activity [37]: 3.36 revertants/µg
- Activity [38]: Non-Toxic
- Activity (RAW264.7 [39]): 10
- Activity [40]: 2.19 revertants/µg
- Activity [41]: Toxic
- Activity [42]: Non-Toxic
- Activity [43]: Toxic
- GI50 at 24 h [44]: > 376 µM
- viability at 24 h, 1880 µM [45]: 97%
- Activity (HepG2 [46]): 21
- Activity [47]: Toxic
- viability at 24 h, 1880 µM [48]: 95%
- Activity_index (RAW264.7 [49]): 78
- Activity (RAW264.7 [50]): 13

SMILES: Cn1cnc([N+](=O)[O-])c1-n1cncn1
- IC50 (Trypanosoma cruzi [1]): 354 µM

SMILES: COC(=O)c1cn(-c2c([N+](=O)[O-])ncn2C)nn1
- IC50 (Trypanosoma cruzi [1]): 31.3 µM
